Columns and labels:
κ-opioid receptor = κ-opioid receptor (Homo sapiens, UniProt P41145); experiment: Radioligand receptor binding assay, competition with [3H]diprenorphine, κ-receptor
Protocol: (§1) The experiment test tubes are divided into total binding tubes and non-specific binding tubes, and several groups of sample tubes added with competitive ligand in different concentrations are provided. The total binding tube is added with expressed membrane receptor protein equivalent to 20 μg and [^3H] diprenorphine (0.5 nM) (1.44 Pbq/mol broad spectrum opioid antagonist, Amersham), the corresponding non-specific binding tubes are further added with 1 μM Naloxone (broad spectrum opioid antagonist, Sigma), the sample tubes are added with different concentrations compounds which are to be screened, the final volume is regulated to 100 μl with 50 mM Tris(Amresco)-HCl (pH 7.4). Incubation is performed at 30° C. for 30 min, and the tubes are placed into ice water to stop reaction. Negative pressure filter is performed in Millipore sample collector via GF/(Whatman) glass fiber filter paper. Ice cold 50 mM Tris-HCl (pH 7.4) is used to wash the filter paper for three times, each for 4 ml; Dry the filter paper and place it in 0.5 ml Eppendorff tube, and add 0.5 ml of lipophilic scintillator liquid (Reagent No. 1 Factory Of Shanghai Chemical Reagent Co. Ltd). Beckman LS 6500 multifunctional liquid scintillation counter is adopted for measuring radiation intensity, calculating inhibition rate is calculated, each concentration has three duplicated tubes, and each tube is independently tested for 3-4 times.
(§2) IC50 value is calculated by software Prism 4.0.
(§3) Ki=IC50/(1+[L]/Kd), ([L] is the concentration of added marked ligand, and Kd is equilibrium dissociation constant of radioligand).

μ-opioid receptor = μ-opioid receptor (Homo sapiens, UniProt P35372); experiment: Radioligand receptor binding assay, competition with [3H]diprenorphine, μ-receptor
Protocol: as §1, §2, §3

Kuming mice [1] = experiment: Mice hot plate method analgesic test; assay type: in vivo
Protocol: (§4) Analgesic efficacy of the subject compound is determined by using model derived from mice hot plate method and mice writhing method (Methodology of Pharmacological Experiment, edition II, Xu Shuyun, People Medical Publishing Company, 1991).
Experiment Animal: Kuming Mice (Female, 18-22 g)
(§5) • (1) Selection of normal mice: the test room temperature is controlled at about 22° C., temperature of the hot plate of an pain threshold dector is regulated to 55° C., the duration from the moment the mice is put on the hot plate to the moment the mice start to lick the hind paw is recorded as pain threshold value, the test is repeated twice at interval of 20 min, and the mice with average pain threshold value no more than 30 sec is qualified mice. • (2) Experimental mice: the qualified mice are randomly divided into groups each having 10 mice, and subjected to subcutaneous injection. • Each group is tested for mice pain response time once every 5, 15, 30, 50, and 60 minute after administration, and the medicine is believed to be effective which response time beyond 1 min. • Mice Writhing Assay • I-6 is administered via subcutaneous injection, then 0.6% acetic acid solution (10 ml/kg) is administered after 30 min, and the number of the mice writhing within 15 min is recorded. 3.

Kuming mice [2] = experiment: Mice writhing assay (acetic acid) analgesic test; assay type: in vivo; conditions: subcutaneous injection, 0.6% acetic acid after 30 min, writhing within 15 min
Protocol: as §4, §5

[3] = Acute toxicity test of compound I-6; assay type: in vivo, mice; conditions: both sexes, Kunming, mouse, in vivo, intraperitoneal; peritoneal administration, mice, observation two weeks
Protocol: (§6) Acute toxicity of compound I-6 is determined according to Methodology of Pharmacological Experiment, edition II, Xu Shuyun (People's Medical Publishing House, 1991), and An Introduction of the Assessment for Novel Drugs, edition II, Qin Boyi (People's Medical Publishing House, 1999).
(§7) Kunming mice (body weight 18-22 g, female 6 weeks old, male 4-5 weeks) are provided, randomly divided into groups each having 20 mice (half female, half male). The mice are subjected to adaptive feeding for 1-2 days before administration. Compound I-6 is administered peritoneally for 4 dosage groups, 60 mg/kg, 50 mg/kg, 40 mg/kg, and 30 mg/kg. The mice are normally fed after administration, their conditions, such as drinking, feeding, excreting, activity, and hair color, are observed everyday, their body weights are weighed every other day, and the observation lasts for two weeks.

Kunming mice = experiment: Acute toxicity test of compound I-6; assay type: in vivo; conditions: peritoneal administration at 30 mg/kg
Protocol: as §6, §7

Kuming mice [4] = experiment: Analgesic tolerance test (hot plate, 9 days administration); assay type: in vivo; conditions: I-6 25 μg/kg subcutaneous injection Day 1-9, hot plate
Protocol: Kuming mice (18-20 g, male) are selected for test, and divided into physiological saline group, morphine group, and I-6 group.
physiological saline group: subcutaneous administration, 0.2 mL for each mice.
Morphine group: Day 1-3, subcutaneous injection, 7 mg/kg • Day 4-7, subcutaneous injection, 10 mg/kg • Day 8-9, subcutaneous injection, 15 mg/kg I-6 group: Day 1-9, subcutaneous injection, 25 μg/kg
Hot plate method in mice is adopted as model, administration lasts for 9 days, analgesic effects before and after administration are determined every day, and if analgesic effect is attenuated after continuous administration of 3 days, the drug concentration will be increased, and if analgesic effect don't change, the drug concentration will not be changed.

Kuming mice [5] = experiment: Physical dependence test after chronic administration (Naloxone-induced jumping and weight reduction); assay type: in vivo; conditions: escalating 50-300 μg/kg s.c. twice daily for 10 days, then Naloxone 3 mg/kg peritoneally
Protocol: Kuming mice (18-20 g, male) are selected, and divided into physiological saline group, morphine group, and I-6 group.
physiological saline group: subcutaneous injection, 0.2 mL for each mice, continuous administration for 10 days.
(§8) morphine group: subcutaneous injection, administration according to an escalating dose schedule, 20, 40, 60, 80, 100 mg/kg, continuous administration for 10 days, two injections per day at 8 hours interval, administration with escalating concentration, and 100 mg/kg is maintained from the fifth injection until Day 10.
as §8, with “I-6” for “morphine”, “50, 100, 150, 200, 300 μg/kg,” for “20, 40, 60, 80, 100 mg/kg,”, “300 μg/kg” for “100 mg/kg”
2 hours after the end administration on the Day 10, each group is peritoneally administered with Naloxone 3 mg/kg, and jump times and weight reduction of mice within 20 min in each group are observed.

Kuming mice [6] = experiment: Influence of compound I-6 on physical dependence caused by morphine; assay type: in vivo; conditions: I-6 300 μg/kg peritoneally 10 min before morphine every day
Protocol: Kuming mice (18-20 g, male) are selected and divided into physiological saline group, morphine group, and I-6+morphine group.
physiological saline group: subcutaneous injection, 0.2 mL for each mouse, continuous administration for 10 days.
as §8
I-6+morphine group: subcutaneous injection of morphine according to 20, 40, 60, 80, 100 mg/kg, continuous administration for 10 days, two injections per day at 8 hours interval, administration with escalating concentration, and 100 mg/kg is maintained from the fifth injection until Day 10; 300 μg/kg of compound I-6 is administered peritonally 10 min before administration of morphine every day.
2 hours after the end administration on Day 10, each group is peritoneally administered with Naloxone 3 mg/kg, and jump times and weight reduction of mice within 20 min in each group are observed.

Compound: O=C1CC(C(=O)N2CCc3ccccc3C2CN2CCCC2)c2cc(Cl)ccc21 (stereo not shown) [I-6, 1-(pyrrolidine-1-methyl)-2-(6-chloro-2,3-dihydro-inden-3-keto-1-carbonyl)-1,2,3,4-tetrahydroisoquinoline]
- Ki (κ-opioid receptor; Ki=IC50/(1+[L]/Kd)): 0.0299 nM
- dpm (κ-opioid receptor; competition binding with κ-receptor, compound at 1 × 10^−5 M, [3H]diprenorphine 0.5 nM): 201.00 dpm
- IC50 (κ-opioid receptor; competition binding, κ-opioid receptor): 0.105 nM
- inhibition at 10 µM (κ-opioid receptor; compound at 1 × 10^−5 M, read-out: inhibition rate %): 100%
- Ki (μ-opioid receptor; Ki=IC50/(1+[L]/Kd)): 668 nM
- IC50 (μ-opioid receptor; competition binding, μ-opioid receptor): 2000 nM
- receptor selectivity μKi/κKi (μ-opioid receptor; ratio of μ Ki to κ Ki): 22341
- analgesic efficacy compared with morphine (Kuming mice [1]; mice hot plate method and mice writhing method): powerful analgesic efficacy
- Analgesic experiment result, Mice hot plate method (Kuming mice [1]; subcutaneous injection, hot plate 55° C., value with range in brackets): 25.000(18.675-33.467) ug/kg
- Analgesic experiment result, Mice writhing assay (Kuming mice [2]): 3.313(1.775-6.183) ug/kg
- LD50 at 2 weeks [3]: 40.1 mg/kg
- influence on drinking, feeding, excreting, activities and hair color (Kunming mice): no influence
- analgesic tolerance (Kuming mice [4]): does not produce significant tolerance phenomena
- physical dependence after continuous administration (Kuming mice [5]): causes no physical dependence like morphine
- effect on physical dependence caused by morphine (Kuming mice [6]; 10 days): can resist physical dependence caused by morphine
- jump times of Naloxone-induced mice (Kuming mice [6]; Naloxone 3 mg/kg on Day 10): significantly reduce jump times
